Test results published in patent US8791099B2, “Transition metal complexes of corroles for preventing cardiovascular diseases or disorders” (Technion Research and Development Foundation Ltd., priority 2007, dated 2014).

What was measured:
[1] = Decomposition of peroxynitrite, comparison with punicalagin; conditions: calculated from rate constants
Protocol: For initial assessment of possible superiority of the metallocorroles relative to natural antioxidants, we have determined the effect of excess (45-135 μM) punicalagin—the active polyphenolic hydrolysable tannin ingredient of pomegranate juice (Tzulker et al., 2007), on decomposition of peroxynitrite (40 μM).

[2] = test system: mouse peritoneal macrophages (MPM); experiment: Cholesterol efflux from MPM of treated E^0 mice; conditions: drinking water 0.04 mM (8 mg/Kg/day), 14 weeks
Protocol: Mouse peritoneal macrophages were incubated with [^3H]-labeled cholesterol for 1 h at 37° C. followed by cell wash in ice-cold PBS (3×) and further incubation in the absence or presence of 100 μg of human HDL protein/ml for 3 h at 37° C. Cellular and medium [^3H]-labels were quantitated and HDL-mediated cholesterol efflux was calculated as the ratio of [^3H]-label in the medium/[^3H]-label in the medium+[^3H]-label in cells.

[3] = test system: mouse peritoneal macrophages (MPM); experiment: Cholesterol synthesis by MPM of treated E^0 mice; conditions: drinking water 0.04 mM (8 mg/Kg/day), 14 weeks
Protocol: Cellular cholesterol biosynthesis was assayed after incubation of macrophages (3×10^6 well^−1) overnight with DMEM containing 2% BSA followed by additional 3 h of incubation at 37° C. with [^3H]-acetate (3.3 μCi/ml). Cellular lipids were extracted with hexane:isopropanol (3:2, v:v), and the upper phase was dried under nitrogen. The lipids were then separated by TLC using an eluent of hexane:ether:acetic acid (130:30:1.5, v:v:v). Unesterified cholesterol spots were visualized by iodine vapor (by using standard for identification) and counted with β-counter.

J-774 macrophages = experiment: Cholesterol efflux from J-774 macrophages by serum of treated E^0 mice; conditions: drinking water 0.04 mM (8 mg/Kg/day), 14 weeks
Protocol: J-774 macrophages were incubated with [^3H]-labeled cholesterol for 1.5 h at 37° C. followed by cell wash in ice-cold PBS (3×) and further incubation in the presence of 15 μL mice serum for 3 h at 37° C. Cellular and medium [^3H]-labels were quantitated and HDL-mediated cholesterol efflux was calculated as the ratio of [^3H]-label in the medium/[^3H]-label in the medium+[^3H]-label in cells.

Row | SMILES | Minimal concentration required for reducing the half lifetime of peroxynitrite by 50% [1] [mol %] | Increase in cholesterol efflux from the E^0 MPM [2] [%] | Increase of cholesterol synthesis by MPMs [3] [%] | Increase in serum-mediated cholesterol efflux from J-774 macrophages (J-774 macrophages) [%]
1 | O=C1O[C@H]2[C@@H]3OC(=O)c4cc(O)c(O)c(O)c4-c4c(O)c(O)c5oc(=O)c6c(c(O)c(O)c7oc(=O)c4c5c76)-c4c(cc(O)c(O)c4O)C(=O)OC[C@H]3OC(O)[C@@H]2OC(=O)c2cc(O)c(O)c(O)c2-c2c1cc(O)c(O)c2O (mixture of isomers) [punicalagin, reference compound] | 250 | – | – | –
2 | COc1c(F)c(F)c(C2=C3C=CC(=N3)C(c3c(F)c(F)c(OC)c(F)c3F)=c3ccc4[n]3[Fe]3[n]5c(cc(S(=O)(=O)O)c5C=4c4c(F)c(F)c(OC)c(F)c4F)-c4c(S(=O)(=O)O)cc2[n]43)c(F)c1F [2-Fe, 5,10,15-tris(4-methoxy-2,3,5,6-tetrafluorophenyl)-2,17-bis(sulfonic acid)-corrolato iron(III)] | – | 14 | 8 | 9
